For 6 cell lines, relative viability results are on record in the supplement of paper PMC10307832.

Experiment in all cases: relative viability (nuclei count vs DMSO), 5 days (fraction); higher = more cells survive
Compound in assay [1]: CCOC(=O)CCNc1cc(N2CCc3ccccc3CC2)nc(-c2ccccn2)n1 [GSK-J4] + C[C@]1(O)C[C@@H](c2nc(-c3ccc4ccc(-c5ccccc5)nc4c3)c3c(N)nccn32)C1 [Linsitinib] (partner 1 µM)
In short, it runs like this: (§1)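 Relative viability divides the nuclei count in treated wells by that in vehicle wells. Lung cancer cell lines were seeded in 1536-well plates, dosed by pin tool the next day, and fixed and stained after 5 days in one step with final 0.05% Triton X-100, 1% formaldehyde and 1 ug/ml Hoechst. Dosing was a single drug or a fixed anchor-drug dose plus five library-drug doses (not always all listed) in √10 steps, and values are medians of duplicate plates imaged at 4×.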

Compound in assay [2]: CCOC(=O)CCNc1cc(N2CCc3ccccc3CC2)nc(-c2ccccn2)n1 [GSK-J4] + Cc1nc(Nc2ncc(C(=O)Nc3c(C)cccc3Cl)s2)cc(N2CCN(CCO)CC2)n1 [Dasatinib] (partner 0.075 µM)
An outline of the steps:
as §1

Compound in assay [3]: CCOC(=O)CCNc1cc(N2CCc3ccccc3CC2)nc(-c2ccccn2)n1 [GSK-J4] + Nc1nc2[nH]cc(CCc3ccc(C(=O)N[C@@H](CCC(=O)O)C(=O)O)cc3)c2c(=O)[nH]1 [Pemetrexed] (partner 0.2 µM)
In short, it runs like this: as §1

Compound in assay [4]: CN1CCC(CC1)OC2=CC(=C(C=C2)NC3=NC=C4C(=N3)N(C(=O)N4C)C5CCCC5)OC [AZ3146] + CS(=O)(=O)CCNCc1ccc(-c2ccc3ncnc(Nc4ccc(OCc5cccc(F)c5)c(Cl)c4)c3c2)o1 [Lapatinib] (partner 2 µM)
An outline of the steps: as §1

Consider NCI-H358, for which the relative viability in assay [1] (first compound 0.5 µM) is 0.682; in assay [1] (first compound 1.581 µM), 0.513; in assay [1] (first compound 5 µM), 0.746; in assay [1] (first compound 15.81 µM), 0.717; in assay [1] (first compound 50 µM), 0.857; in assay [2] (first compound 0.5 µM), 0.201. Besides, the relative viability in assay [2] (first compound 1.581 µM) turned out to be 0.132; in assay [2] (first compound 5 µM), 0.139; in assay [2] (first compound 15.81 µM), 0.152; in assay [2] (first compound 50 µM), 0.158; in assay [3] (first compound 0.5 µM) it was 0.237; in assay [3] (first compound 5 µM) it was 0.171. Further, the relative viability in assay [3] (first compound 15.81 µM) came to 0.171; in assay [3] (first compound 50 µM) it was 0.188; in assay [4] (first compound 0.08 µM) it was 0.595; in assay [4] (first compound 0.253 µM), 0.471; in assay [4] (first compound 0.8 µM), 0.377; in assay [4] (first compound 2.53 µM) it was 0.384. Also, in assay [4] (first compound 8 µM), the relative viability was 0.435.
On to NCI-H1395, for which the relative viability worked out at 1.06 in assay [1] (first compound 0.5 µM); 1.22 in assay [1] (first compound 1.581 µM); 0.877 in assay [1] (first compound 5 µM); 0.813 in assay [1] (first compound 15.81 µM); 0.745 in assay [1] (first compound 50 µM); 0.402 in assay [2] (first compound 0.5 µM). Also, the relative viability in assay [2] (first compound 1.581 µM) turned out to be 0.428; in assay [2] (first compound 5 µM), 0.382; in assay [2] (first compound 15.81 µM) it was 0.355; in assay [2] (first compound 50 µM) it was 0.375; in assay [3] (first compound 0.5 µM) it was 0.894; in assay [3] (first compound 1.581 µM), 0.73. Also, the relative viability amounted to 0.707 in assay [3] (first compound 5 µM); 0.764 in assay [3] (first compound 15.81 µM); 0.707 in assay [3] (first compound 50 µM); 0.853 in assay [4] (first compound 0.08 µM); 0.915 in assay [4] (first compound 0.253 µM); 0.997 in assay [4] (first compound 0.8 µM). Besides, the relative viability in assay [4] (first compound 2.53 µM) amounted to 1.19; in assay [4] (first compound 8 µM), 0.999.
On to SK-MES-1, for which the relative viability in assay [1] (first compound 0.5 µM) amounted to 0.994; in assay [1] (first compound 1.581 µM) it was 0.975; in assay [1] (first compound 5 µM), 0.827; in assay [1] (first compound 15.81 µM), 0.993; in assay [1] (first compound 50 µM), 0.994; in assay [2] (first compound 0.5 µM) it was 0.392. Besides, the relative viability turned out to be 0.348 in assay [2] (first compound 1.581 µM); 0.334 in assay [2] (first compound 5 µM); 0.24 in assay [2] (first compound 15.81 µM); 0.358 in assay [2] (first compound 50 µM); 0.836 in assay [3] (first compound 0.5 µM); 0.878 in assay [3] (first compound 1.581 µM). The relative viability was 0.882 in assay [3] (first compound 5 µM); 0.808 in assay [3] (first compound 15.81 µM); 0.508 in assay [3] (first compound 50 µM); 0.496 in assay [4] (first compound 0.08 µM); 0.43 in assay [4] (first compound 0.253 µM); 0.424 in assay [4] (first compound 0.8 µM). Moreover, the values for the relative viability in assay [4] (first compound 2.53 µM) and in assay [4] (first compound 8 µM) were 0.523 and 0.432, respectively.
In the case of PC-3 [JPC-3], the relative viability is 0.883 in assay [1] (first compound 0.5 µM); 0.928 in assay [1] (first compound 1.581 µM); 0.961 in assay [1] (first compound 5 µM); 0.908 in assay [1] (first compound 15.81 µM); 0.945 in assay [1] (first compound 50 µM); 0.978 in assay [2] (first compound 0.5 µM). Besides, the relative viability in assay [2] (first compound 1.581 µM) was found to be 0.891; in assay [2] (first compound 5 µM) it was 0.742; in assay [2] (first compound 15.81 µM), 0.924; in assay [2] (first compound 50 µM), 0.859; in assay [3] (first compound 0.5 µM), 1.14; in assay [3] (first compound 1.581 µM), 0.848. The relative viability came to 1.03 in assay [3] (first compound 5 µM); 0.938 in assay [3] (first compound 15.81 µM); 0.944 in assay [3] (first compound 50 µM); 0.368 in assay [4] (first compound 0.08 µM); 0.459 in assay [4] (first compound 0.253 µM); 0.419 in assay [4] (first compound 0.8 µM). In addition, the relative viability in assay [4] (first compound 2.53 µM) is 0.47; in assay [4] (first compound 8 µM) it was 0.444.
Regarding COR-L 105, the relative viability in assay [1] (first compound 0.5 µM) turned out to be 0.985; in assay [1] (first compound 1.581 µM), 0.572; in assay [1] (first compound 5 µM), 0.91; in assay [1] (first compound 15.81 µM) it was 1.06; in assay [1] (first compound 50 µM), 0.99; in assay [2] (first compound 0.5 µM), 0.338. Further, the relative viability in assay [2] (first compound 1.581 µM) worked out at 0.38; in assay [2] (first compound 5 µM) it was 0.276; in assay [2] (first compound 15.81 µM) it was 0.315; in assay [2] (first compound 50 µM), 0.326; in assay [3] (first compound 0.5 µM), 0.826; in assay [3] (first compound 5 µM), 1.12. Also, the relative viability in assay [3] (first compound 15.81 µM) came to 1.09; in assay [3] (first compound 50 µM) it was 0.937; in assay [4] (first compound 0.08 µM), 0.357; in assay [4] (first compound 0.253 µM), 0.36; in assay [4] (first compound 0.8 µM), 0.317; in assay [4] (first compound 2.53 µM), 0.341. Besides, in assay [4] (first compound 8 µM), the relative viability came out at 0.254.
Regarding EKVX, the relative viability turned out to be 0.928 in assay [1] (first compound 0.5 µM); 0.832 in assay [1] (first compound 1.581 µM); 1.16 in assay [1] (first compound 5 µM); 0.836 in assay [1] (first compound 15.81 µM); 0.902 in assay [1] (first compound 50 µM); 0.535 in assay [2] (first compound 0.5 µM). The relative viability in assay [2] (first compound 5 µM) amounted to 0.569; in assay [2] (first compound 50 µM), 0.43; in assay [3] (first compound 0.5 µM), 0.351; in assay [3] (first compound 5 µM), 0.426; in assay [3] (first compound 15.81 µM), 0.418; in assay [3] (first compound 50 µM) it was 0.315. Further, the relative viability in assay [4] (first compound 0.08 µM) was determined as 0.172; in assay [4] (first compound 0.253 µM), 0.222; in assay [4] (first compound 0.8 µM), 0.225; in assay [4] (first compound 2.53 µM), 0.24; in assay [4] (first compound 8 µM) it was 0.2.
